Measured values from ChEMBL document CHEMBL1201862, “PubChem BioAssay data set” (2004).
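Exposure lasted 48 hours, with cells grown in 96-well plates and compounds tested at five concentrations. The concentration for 50% growth inhibition is given as GI50.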 Activity calls are given as the source filed them. Rule as the data show it: active = GI50 up to about 1.1 µM and inactive = higher.

Experiments:
Test in all cases: growth of human tumour cells (NCI), 48 h
HCT-15 = tested on: HCT-15
CAKI-1 = tested on: CAKI-1
IGROV-1 = tested on: IGROV-1
U-251 = tested on: U-251
NCI-H522 = tested on: NCI-H522
SK-MEL-5 = tested on: SK-MEL-5
HOP-92 = tested on: HOP-92
LOX IMVI = tested on: LOX IMVI
UACC-62 = tested on: UACC-62
KM-20L2 = tested on: KM-20L2
MOLT-4 = tested on: MOLT-4
UO-31 = tested on: UO-31
CCRF-CEM = tested on: CCRF-CEM
SW-620 = tested on: SW-620
COLO 205 = tested on: COLO 205
RXF 393 = tested on: RXF 393
SF-539 = tested on: SF-539
KM12 = tested on: KM12
HCC 2998 = tested on: HCC 2998
SK-MEL-28 = tested on: SK-MEL-28
A549 = tested on: A549
XF498 = tested on: XF498
M19-MEL = tested on: M19-MEL
SK-MEL-2 = tested on: SK-MEL-2
RPMI-8226 = tested on: RPMI-8226
OVCAR-5 = tested on: OVCAR-5
SN12C = tested on: SN12C
OVCAR-4 = tested on: OVCAR-4
RXF 631 = tested on: RXF 631
SR = tested on: SR
SF-268 = tested on: SF-268
EKVX = tested on: EKVX
NCI-H23 = tested on: NCI-H23
K562 = tested on: K562
OVCAR-3 = tested on: OVCAR-3
SNB-19 = tested on: SNB-19
HCT-116 = tested on: HCT-116
TK-10 = tested on: TK-10
SK-OV-3 = tested on: SK-OV-3
OVCAR-8 = tested on: OVCAR-8
HOP-18 = tested on: HOP-18
LXFL 529 = tested on: LXFL 529
Malme-3M = tested on: Malme-3M
ACHN = tested on: ACHN
SNB-78 = tested on: SNB-78
DMS-273 = tested on: DMS-273
SF-295 = tested on: SF-295
NCI-H226 = tested on: NCI-H226
HOP-62 = tested on: HOP-62
NCI-H460 = tested on: NCI-H460
HL-60 = tested on: HL-60
UACC-257 = tested on: UACC-257
HT-29 = tested on: HT-29
M14 = tested on: M14
DMS-114 = tested on: DMS-114
SNB-75 = tested on: SNB-75
786-0 = tested on: 786-0
A498 = tested on: A498

CCCOC(=O)CCC(NC(=O)c1ccc(Nc2nc3ccccc3nc2-c2cccs2)cc1)C(=O)OCCC (stereo not drawn)
GI50 (HCT-15): > 100 µM | GI50 (CAKI-1): > 100 µM (inactive) | GI50 (IGROV-1): 55.1 µM (inactive) | GI50 (U-251): > 100 µM (inactive) | GI50 (NCI-H522): > 100 µM (inactive) | GI50 (SK-MEL-5): 72.1 µM (inactive) | GI50 (HOP-92): 29.2 µM (inactive) | GI50 (LOX IMVI): > 100 µM (inactive) | GI50 (UACC-62): 41.7 µM (inactive) | GI50 (KM-20L2): > 100 µM (inactive) | GI50 (MOLT-4): 2.31 µM (inactive) | GI50 (UO-31): 95.9 µM (inactive) | GI50 (CCRF-CEM): 3.62 µM (inactive) | GI50 (SW-620): > 100 µM (inactive) | GI50 (COLO 205): > 100 µM (inactive) | GI50 (RXF 393): 67.9 µM (inactive) | GI50 (SF-539): > 100 µM (inactive) | GI50 (KM12): > 100 µM (inactive) | GI50 (HCC 2998): 95.5 µM (inactive) | GI50 (SK-MEL-28): > 100 µM (inactive) | GI50 (A549): > 100 µM (inactive) | GI50 (XF498): 79.8 µM (inactive) | GI50 (M19-MEL): > 100 µM (inactive) | GI50 (SK-MEL-2): 24.8 µM (inactive) | GI50 (RPMI-8226): > 100 µM (inactive) | GI50 (OVCAR-5): 56 µM (inactive) | GI50 (SN12C): > 100 µM (inactive) | GI50 (OVCAR-4): > 100 µM (inactive) | GI50 (RXF 631): > 100 µM (inactive) | GI50 (SR): 61.9 µM (inactive) | GI50 (SF-268): > 100 µM (inactive) | GI50 (EKVX): > 100 µM (inactive) | GI50 (NCI-H23): > 100 µM (inactive) | GI50 (K562): > 100 µM (inactive) | GI50 (OVCAR-3): > 100 µM (inactive) | GI50 (SNB-19): > 100 µM (inactive) | GI50 (HCT-116): > 100 µM (inactive) | GI50 (TK-10): > 100 µM (inactive) | GI50 (SK-OV-3): > 100 µM (inactive) | GI50 (OVCAR-8): > 100 µM (inactive) | GI50 (HOP-18): > 100 µM (inactive) | GI50 (LXFL 529): > 100 µM (inactive) | GI50 (Malme-3M): 19.1 µM (inactive) | GI50 (ACHN): > 100 µM (inactive) | GI50 (SNB-78): > 100 µM (inactive) | GI50 (DMS-273): > 100 µM (inactive) | GI50 (SF-295): > 100 µM (inactive) | GI50 (NCI-H226): > 100 µM (inactive) | GI50 (HOP-62): > 100 µM (inactive)

CCCCc1ccc(-n2c3nc(=O)n(C)c(=O)c-3nc3ccccc32)cc1
GI50 (HCT-15): 6.35 µM | GI50 (CAKI-1): 18.4 µM (inactive) | GI50 (IGROV-1): 13.6 µM (inactive) | GI50 (U-251): 10.6 µM (inactive) | GI50 (NCI-H522): 7.6 µM (inactive) | GI50 (SK-MEL-5): 1.52 µM (inactive) | GI50 (NCI-H460): 4.03 µM (inactive) | GI50 (HL-60): 10.6 µM (inactive) | GI50 (UACC-62): 1.77 µM (inactive) | GI50 (KM-20L2): 4.4 µM (inactive) | GI50 (MOLT-4): 15.3 µM (inactive) | GI50 (UACC-257): 4.01 µM (inactive) | GI50 (UO-31): 12.5 µM (inactive) | GI50 (CCRF-CEM): 13.5 µM (inactive) | GI50 (SW-620): 6.18 µM (inactive) | GI50 (COLO 205): 3.09 µM (inactive) | GI50 (RXF 393): 18.4 µM (inactive) | GI50 (SF-539): 14.1 µM (inactive) | GI50 (KM12): 11.2 µM (inactive) | GI50 (HCC 2998): 4.36 µM (inactive) | GI50 (A549): 5.61 µM (inactive) | GI50 (XF498): 18.2 µM (inactive) | GI50 (M19-MEL): 1.5 µM (inactive) | GI50 (SK-MEL-2): 10.9 µM (inactive) | GI50 (RPMI-8226): 13.7 µM (inactive) | GI50 (OVCAR-5): 18.1 µM (inactive) | GI50 (SN12C): 7.35 µM (inactive) | GI50 (OVCAR-4): 8 µM (inactive) | GI50 (RXF 631): 11.9 µM (inactive) | GI50 (SF-268): 10.1 µM (inactive) | GI50 (EKVX): 4.05 µM (inactive) | GI50 (NCI-H23): 2.37 µM (inactive) | GI50 (K562): 12.4 µM (inactive) | GI50 (HT-29): 3.11 µM (inactive) | GI50 (OVCAR-3): 2.86 µM (inactive) | GI50 (SNB-19): 8.24 µM (inactive) | GI50 (HCT-116): 12.3 µM (inactive) | GI50 (TK-10): 13.9 µM (inactive) | GI50 (SK-OV-3): 37.7 µM (inactive) | GI50 (OVCAR-8): 7.57 µM (inactive) | GI50 (HOP-18): 10.8 µM (inactive) | GI50 (LXFL 529): 15.6 µM (inactive) | GI50 (Malme-3M): 7.6 µM (inactive) | GI50 (M14): 7.89 µM (inactive) | GI50 (ACHN): 10.7 µM (inactive) | GI50 (DMS-114): 4.7 µM (inactive) | GI50 (SNB-78): 16.3 µM (inactive) | GI50 (DMS-273): 10.3 µM (inactive) | GI50 (SNB-75): 15.3 µM (inactive) | GI50 (786-0): 16.3 µM (inactive) | GI50 (SF-295): 11.1 µM (inactive) | GI50 (A498): 18.7 µM (inactive) | GI50 (NCI-H226): 11.7 µM (inactive) | GI50 (HOP-62): 18.2 µM (inactive)
